Measurements published in patent US5061711A, “Method of curing liver diseases by using pyrrolo quinoline quinone triesters and novel pyrrolo quinoline quinone triesters” (Mitsubishi Gas Chemical Company, Inc., priority 1989, dated 1991).

How the values were obtained:
male mice SPF-ICR = assay: Acute toxicity test; settings: mouse, in vivo
Protocol: To male mice SPF-ICR five weeks old (supplied by Japan Charles River Co.) were intraperitoneally administered PQQ.2Na, PQQ trimethyl ester and PQQ triallyl ester at dosages of 40, 80, 160 and 200 mg per kg of body weight of mouse, respectively and they were bred for 14 days at 25° C. One group consisted of 8 mice. For administration, PQQ.2Na was dissolved in physiological saline and PQQ trimethyl ester and PQQ triallyl ester were suspended in 1%Tween 80-containing physiological saline, respectively.

[1] = tested on: D-galactosamine-induced liver diseases; assay: Pharmacological effect (1) on D-galactosamine-induced liver diseases; type: in vivo, SD rats; settings: D-galactosamine 1 g/kg rat s.c., 23 hours, average of five rats; for Total bilirubin in serum: D-galactosamine alone 1.0; for GPT in serum: D-galactosamine alone 552; for GOT in serum: D-galactosamine alone 1067
Protocol: Pharmacological effect (1) of PQQ triesters on D-galactosamine-induced liver diseases;
Forty SD rats (male 7 weeks old, body weight: about 240 g; supplied by Japan Charles River Co.) were divided to eight groups (A-H) each consisting of five rats. All rats were fasted for 16 hours and 1.2 ml of a solution containing 0.4 mg/ml of PQQ trimethyl ester was intraperitoneally administered to the rats of group C, 1.2 ml of a solution containing 1.0 mg/ml of PQQ trimethyl ester was intraperitoneally administered to the rats of group D, 1.2 ml of a solution containing 2.0 mg/ml of PQQ trimethyl ester was intraperitoneally administered to the rats of group E, 1.2 ml of a solution containing 0.4 mg/ml of PQQ triallyl ester was intraperitoneally administered to the rats of group F, 1.2 ml of a solution containing 1.0 mg/ml of PQQ triallyl ester was intraperitoneally administered to the rats of group G, and 1.2 ml of a solution containing 2.0 mg/ml of PQQ triallyl ester was intraperitoneally administered to the rats of group H and furthermore, after 40 minutes, the same PQQ triesters in the same doses as above were intraperitoneally administered to respective rats. In these cases, the PQQ triesters were suspended in physiological saline containing 1% Tween 80 and administered to the rats. 1.2 ml of physiological saline was intraperitoneally administered to the rats of group B in place of PQQ triesters. Furthermore, after 20 minutes, 1.2 ml of a solution of 2 g of D-galactosamine in 10 ml of physiological saline was subcutaneously injected to the rats of groups B-H. Neither PQQ triesters nor D-galactosamine were administered to the rats of group A.
After 23 hours from administration of D-galactosamine, blood was collected from abdominal main artery and serum was obtained by centrifugation therefrom.
GPT, GOT and amount of total bilirubin in the serum were measured by clinical examination reagent (trademark: FUJI DRYCHEMSLIDE manufactured by Fuji Photo Film Co., Ltd.). The results are shown in Table 7 by average value of five rats.

[2] = tested on: carbon tetrachloride (CCl4)-induced liver diseases; assay: Pharmacological activity (2) on carbon tetrachloride (CCl4)-induced liver diseases; type: in vivo, SD rats; settings: CCl4 1 ml/kg rat i.p., 24 hours, average of five rats; for Total bilirubin in serum: CCl4 alone 0.9; for GPT in serum: CCl4 alone 949; for GOT in serum: CCl4 alone 1970
Protocol: Pharmacological activity (2) of PQQ triesters on carbon tetrachloride (CCl4)-induced liver diseases:
Forty SD rats (male, 7 weeks old, body weight: about 260 g; supplied by Japan Charles River Co.) were divided to eight groups (A-H) each consisting of five rats. All rats were fasted for 18 hours and 1.3 ml of a solution containing 2 mg/ml of PQQ trimethyl ester was intraperitoneally administered to the rats of group C, 1.3 ml of a solution containing 10 mg/ml of PQQ trimethyl ester was intraperitoneally administered to the rats of group D, 1.3 ml of a solution containing 20 mg/ml of PQQ trimethyl ester was intraperitoneally administered to the rats of group E, 1.3 ml of a solution containing 2 mg/ml of PQQ triallyl ester was intraperitoneally administered to the rats of group F, 1.3 ml of a solution containing […] was intraperitoneally administered to the rats of group G, and 1.3 ml of a solution containing 20 mg/ml of PQQ triallyl ester was intraperitoneally administered to the rats of group H and furthermore, after lapse of 50 minutes, the same PQQ triesters in the same doses as above were intraperitoneally administered to respective rats. In these cases, the PQQ triesters were suspended in physiological saline containing 1% Tween 80 and administered to the rats. 1.3 ml of physiological saline was intraperitoneally administered to the rats of group B in place of PQQ triesters. […] Neither PQQ triesters nor carbon tetrachloride were administered to the rats of group A.
After 24 hours from administration of carbon tetrachloride, blood was collected from abdominal main artery and serum was obtained by centrifugation therefrom.
GPT, […] and amount of total bilirubin in the serum were measured by clinical examination reagent (trademark: FUJI DRYCHEMSLIDE manufactured by Fuji Photo Film Co., Ltd.). The results are shown in Table 6 by average value of five rats.

Solubility = type: physicochemical
mice = assay: Kidney toxicity determined by blood examination; type: in vivo, mouse; settings: for Creatinine in serum / Urea nitrogen in serum / Glucose in serum: average of eight mice; for Creatinine in serum: None: 0.4; for Urea nitrogen in serum: None: 20; for Glucose in serum: None: 78
Protocol: (3) Kidney toxicity determined by blood examination:
After lapse of one day from the administration, the mice were fasted (only water was given) and then after 18 hours, blood was collected and serum was obtained therefrom. Glucose, urea nitrogen and creatinine in the serum were examined by clinical examination reagent (trademark: FUJI DRYCHEMSLIDE manufactured by Fuji Photo Film Co., Ltd.). The results are shown by average value of eight mice in Table 3.

For `COC(=O)c1cc(C(=O)OC)c2c(n1)C(=O)C(=O)c1cc(C(=O)OC)[nH]c1-2` [PQQ trimethyl ester], the mice died (male mice SPF-ICR) was “no mice died”, the “Total bilirubin in serum” value ([1]; i.p. 2 mg/kg rat twice) was 0.9 mg/dL and the GPT in serum ([1]; i.p. 2 mg/kg rat twice) was 447 U/l. For the same compound, the GOT in serum ([1]; i.p. 2 mg/kg rat twice) was 970 U/l, the “Total bilirubin in serum” value ([1]; i.p. 5 mg/kg rat twice) was 0.5 mg/dL and the GPT in serum ([1]; i.p. 5 mg/kg rat twice) was 182 U/l. The GOT in serum ([1]; i.p. 5 mg/kg rat twice) was 544 U/l, the “Total bilirubin in serum” value ([1]; i.p. 10 mg/kg rat twice) was 0.7 mg/dL and the GPT in serum ([1]; i.p. 10 mg/kg rat twice) was 388 U/l. The GOT in serum ([1]; i.p. 10 mg/kg rat twice) was 833 U/l, the “Total bilirubin in serum” value ([2]; i.p. 10 mg/kg rat twice) was 0.9 mg/dL and the GPT in serum ([2]; i.p. 10 mg/kg rat twice) was 479 U/l. For the same compound, the GOT in serum ([2]; i.p. 10 mg/kg rat twice) was 1263 U/l, the “Total bilirubin in serum” value ([2]; i.p. 50 mg/kg rat twice) was 0.7 mg/dL and the GPT in serum ([2]; i.p. 50 mg/kg rat twice) was 645 U/l. The GOT in serum ([2]; i.p. 50 mg/kg rat twice) was 1543 U/l, the “Total bilirubin in serum” value ([2]; i.p. 100 mg/kg rat twice) was 0.8 mg/dL and the GPT in serum ([2]; i.p. 100 mg/kg rat twice) was 676 U/l. The GOT in serum ([2]; i.p. 100 mg/kg rat twice) was 1605 U/l.
In the case of `C=CCOC(=O)c1cc(C(=O)OCC=C)c2c(n1)C(=O)C(=O)c1cc(C(=O)OCC=C)[nH]c1-2` [PQQ triallyl ester], the mice died (male mice SPF-ICR) is reported as “no mice died”, the Solubility (Solubility; acetone) is reported as “Very soluble” and the Solubility (Solubility; ethanol) is reported as “Very soluble”. The Solubility (Solubility; methanol) was “Very soluble”, the Solubility (Solubility; water) was “hardly soluble” and the “Total bilirubin in serum” value ([1]; i.p. 2 mg/kg rat twice) was 0.8 mg/dL. For the same compound, the GPT in serum ([1]; i.p. 2 mg/kg rat twice) was 538 U/l, the GOT in serum ([1]; i.p. 2 mg/kg rat twice) was 1132 U/l and the “Total bilirubin in serum” value ([1]; i.p. 5 mg/kg rat twice) was 0.8 mg/dL. The GPT in serum ([1]; i.p. 5 mg/kg rat twice) was 322 U/l, the GOT in serum ([1]; i.p. 5 mg/kg rat twice) was 648 U/l and the “Total bilirubin in serum” value ([1]; i.p. 10 mg/kg rat twice) was 0.6 mg/dL. The GPT in serum ([1]; i.p. 10 mg/kg rat twice) was 120 U/l, the GOT in serum ([1]; i.p. 10 mg/kg rat twice) was 480 U/l and the “Total bilirubin in serum” value ([2]; i.p. 10 mg/kg rat twice) was 0.7 mg/dL. For the same compound, the GPT in serum ([2]; i.p. 10 mg/kg rat twice) was 323 U/l, the GOT in serum ([2]; i.p. 10 mg/kg rat twice) was 1186 U/l and the “Total bilirubin in serum” value ([2]; i.p. 50 mg/kg rat twice) was 0.7 mg/dL. For the same compound, the GPT in serum ([2]; i.p. 50 mg/kg rat twice) was 583 U/l, the GOT in serum ([2]; i.p. 50 mg/kg rat twice) was 1270 U/l and the “Total bilirubin in serum” value ([2]; i.p. 100 mg/kg rat twice) was 0.8 mg/dL. It also gave a GPT in serum ([2]; i.p. 100 mg/kg rat twice) of 576 U/l, a GOT in serum ([2]; i.p. 100 mg/kg rat twice) of 1563 U/l and a Creatinine in serum (mice; i.p. 40 mg/kg) of 0.3 mg/dL. For the same compound, the “Urea nitrogen in serum” value (mice; i.p. 40 mg/kg) was 12 mg/dL, the Glucose in serum (mice; i.p. 40 mg/kg) was 42 mg/dL and the Creatinine in serum (mice; i.p. 80 mg/kg) was 0.2 mg/dL. For the same compound, the “Urea nitrogen in serum” value (mice; i.p. 80 mg/kg) was 12 mg/dL, the Glucose in serum (mice; i.p. 80 mg/kg) was 47 mg/dL and the Creatinine in serum (mice; i.p. 160 mg/kg) was 0.2 mg/dL. The “Urea nitrogen in serum” value (mice; i.p. 160 mg/kg) was 10 mg/dL, the Glucose in serum (mice; i.p. 160 mg/kg) was 59 mg/dL and the Creatinine in serum (mice; i.p. 200 mg/kg) was 0.1 mg/dL. The “Urea nitrogen in serum” value (mice; i.p. 200 mg/kg) was 9 mg/dL, the Glucose in serum (mice; i.p. 200 mg/kg) was 64 mg/dL and the “creatinine in serum (in words)” value (mice; i.p., versus no compound) was “nearly the same”. The “glucose in serum (in words)” value (mice; i.p., versus no compound) was “nearly the same”, the “urea nitrogen in serum (in words)” value (mice; i.p., versus no compound) was “nearly the same” and the “kidney toxicity (in words)” value (mice; mouse, in vivo, ip) was “no kidney toxicity was observed”.
